This note sets out measurements from patent EP4623912A1, “A METHOD FOR DEFATTENING A STEATOTIC LIVER EX VIVO” (ETH Zurich, priority 2024, dated 2025).

One data set deals with human liver graft. The method, then: A human liver graft was perfused for 8 days, after being discarded from all Swiss transplant centers. Use of discarded grafts was approved by local authorities (Kantonale Ethik Kommission Zürich KEK Nr. 2017-000412). […] The liver was procured with a total ischemia time of 40 min after circulatory death of the donor. It was flushed with IGL-1 solution and perfused for 2 h with Belzer MPS at 8°C. The infrahepatic vena cava was closed with a suture and the hepatic artery, portal vein, suprahepatic vena cava and common bile duct were cannulated with steel cannulas. The graft was subsequently perfused with whole blood and a custom built normothermic perfusion machine (Eshmuminov,D. et al, Nat Biotechnol 38, (2020)). Hepatic arterial pressure was controlled to be 80/50 mmHg, allowing for an average flow of 0.25 L/min. A vasodilator, epoprostenol, was automatically infused to keep arterial flow stable. Oxygenation was automatically controlled with a setpoint partial pressure of oxygen equal to 12 kPa. Portal venous flow was controlled to be at 1 L/min, resulting in a pressure of 2 mmHg on average. Further, oxygenation of portal blood was automatically regulated to achieve 65% saturation in the vena cava. Use of an electric pinch valve further allowed for pressure regulation in the vena cava, keeping a constant pressure of 0 mmHg. Glucose levels were automatically controlled by using a real-time glucose sensor (CCIT) and automated insulin infusions, keeping glucose levels at 7 mmol/L from the second day of perfusion onwards. A dialysis bypass was used to clear waste metabolites and control haematocrit levels by using a fixed dialysate influx rate of 200 mL/h and an automatically controlled outflux. […] After 8 days of perfusion, the liver weight decreased to 1507g (without gallbladder) and was sent for pathological examination.
Perfusate was mixed with 6 units of red blood cell concentrate (A+), 5 units of fresh frozen […], one unit of thrombocytes and 200 mL of 20% human albumin (CSL Behring). An initial bolus of 2.25 g Tazobactam and 500 mg Methylprednisolone was administered after priming. During the perfusion, 1000 U of heparin were infused per hour. Further, 2.25 g of Tazobactam, 3.36 g of ursodesoxycholic acid and 500 mg of methylprednisolone were continuously infused per day. UCB9608 was administered as a daily bolus by adding 300 µL of 50 mM solution directly to the blood reservoir, targeting a final concentration in the perfusate of 10 µM. On the first day, a larger bolus of 600 µL was given.
Adipose depots, liver pieces, differentiated iBAs, HepG2, HEK293T and HEK293-AAV cell types were homogenized in RIPA buffer (50 mM Tris-HCl pH 7.4, 150 mM NaCl, 2 mM EDTA, 1.0% Triton X100, 0.5% sodium deoxycholate) with protease inhibitors (Complete, Roche) and phosphatase inhibitors (Halt phosphatase inhibitor cocktail, ThermoFisher). The homogenates were centrifuged at 12,000×g for 10 min at 4°C to remove debris and collect whole cell extract (WCE). The concentration of WCE was determined by DC Protein Assay (Bio-Rad). After boiling the sample with Lämmeli buffer at 95°C for 5 min, equal amount of proteins was loaded and separated on 12% SDS-PAGE. […]

A further data set concerns ATGL. Description: ATGL response to glucose deprivation after UCB9608-mediated depletion of Golgi Ptdlns4P. Format: cell-based. The following applies: Golgi Ptdlns4P depleted by UCB9608.
Setting [1] is: biopsies from both lobes, unchanged in the two control grafts.

As for `COc1ccc(NC(=O)N2CCN(c3nc(N)nc4c3cnn4C)[C@@H](C)C2)c(C)c1` [UCB9608], in the data set on human liver graft, the “cell viability (ATP analysis and histology)” value is reported as “remained until the end of perfusion”; the “time liver function was well preserved” value is “at least 6 days”. Also, in the data set on human liver graft (after 8 days, without gallbladder, initial weight 2740g with gall bladder), the “liver weight after perfusion” value is given as 1507 g. Further, in the data set on human liver graft (after 8 days, 15% before perfusion, pathological examination), the “macrovesicular steatosis after perfusion” value is “less than 5%”. Moreover, in the data set on human liver graft (setting [1]), the “ATGL levels in liver biopsies” value is “substantially elevated” and the “TG deposition in liver biopsies” value was “reduced”. Also, the “non-esterified fatty acids (NEFAs) from dialysate” value with human liver graft (during perfusion, UCB9608 daily, target 10 µM) is “detected”. Besides, in the data set on ATGL, the “ATGL response to glucose deprivation” value is listed as “loss of ATGL regulation”.
